{"source": "patent US8436014B2", "about": "“Solid forms of N-(4-(7-azabicyclo[2.2.1]heptan-7-yl)-2-(trifluorormethyl)phenyl)-4-oxo-5-(trifluoromethyl)-1,4-dihyroquinoline-3-carboxamide” (Vertex Pharmaceutical Incorporated, priority 2008, dated 2013)", "target": "T1, ΔF508-CFTR (Homo sapiens, UniProt P13569, DEL508-508)", "T1 construct": "expressed in transfected cells", "T1 sequence (P13569 with tags, fused parts or gaps DEL508-508)": "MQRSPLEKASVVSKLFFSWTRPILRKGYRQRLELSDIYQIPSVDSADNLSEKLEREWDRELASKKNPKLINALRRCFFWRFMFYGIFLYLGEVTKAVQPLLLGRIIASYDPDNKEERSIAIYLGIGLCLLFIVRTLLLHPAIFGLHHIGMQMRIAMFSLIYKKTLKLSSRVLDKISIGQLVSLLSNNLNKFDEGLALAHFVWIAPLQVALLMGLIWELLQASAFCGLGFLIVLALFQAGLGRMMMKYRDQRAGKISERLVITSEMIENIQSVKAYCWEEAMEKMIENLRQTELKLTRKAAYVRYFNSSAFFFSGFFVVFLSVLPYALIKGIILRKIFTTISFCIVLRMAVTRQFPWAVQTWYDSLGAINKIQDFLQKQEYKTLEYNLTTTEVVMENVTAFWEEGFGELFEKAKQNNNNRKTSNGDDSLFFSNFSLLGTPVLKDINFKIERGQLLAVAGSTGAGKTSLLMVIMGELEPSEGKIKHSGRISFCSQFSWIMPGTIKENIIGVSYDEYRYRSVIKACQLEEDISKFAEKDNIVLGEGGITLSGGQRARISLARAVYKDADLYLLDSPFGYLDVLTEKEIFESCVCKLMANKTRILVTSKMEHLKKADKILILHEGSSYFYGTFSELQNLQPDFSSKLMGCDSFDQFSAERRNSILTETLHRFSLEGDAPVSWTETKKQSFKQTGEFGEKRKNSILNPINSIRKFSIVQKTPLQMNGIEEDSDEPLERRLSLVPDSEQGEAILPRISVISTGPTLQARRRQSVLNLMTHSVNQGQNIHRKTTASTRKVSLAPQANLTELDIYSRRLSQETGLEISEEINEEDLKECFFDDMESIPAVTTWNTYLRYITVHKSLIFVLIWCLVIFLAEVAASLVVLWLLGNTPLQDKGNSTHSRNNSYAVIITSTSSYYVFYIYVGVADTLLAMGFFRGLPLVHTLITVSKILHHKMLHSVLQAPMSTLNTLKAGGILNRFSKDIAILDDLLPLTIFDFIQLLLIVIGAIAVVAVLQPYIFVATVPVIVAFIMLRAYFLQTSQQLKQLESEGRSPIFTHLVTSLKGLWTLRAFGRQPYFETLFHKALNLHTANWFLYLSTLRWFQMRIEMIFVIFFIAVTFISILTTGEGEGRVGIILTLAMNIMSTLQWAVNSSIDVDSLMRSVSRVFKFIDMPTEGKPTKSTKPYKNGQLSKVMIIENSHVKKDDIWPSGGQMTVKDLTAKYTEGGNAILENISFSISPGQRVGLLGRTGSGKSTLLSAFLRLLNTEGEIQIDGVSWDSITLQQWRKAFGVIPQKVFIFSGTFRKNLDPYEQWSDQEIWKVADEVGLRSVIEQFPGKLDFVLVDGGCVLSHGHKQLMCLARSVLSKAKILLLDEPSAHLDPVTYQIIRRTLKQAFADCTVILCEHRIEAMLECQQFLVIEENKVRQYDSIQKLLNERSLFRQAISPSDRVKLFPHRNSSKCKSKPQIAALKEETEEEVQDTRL", "assay": "Membrane potential optical assay for ΔF508-CFTR potentiation (FLIPR III, voltage sensing dyes)", "assay_type": "cell-based", "details": "assay not named in the result sentence", "description": "Membrane Potential Optical Methods for Assaying ΔF508-CFTR Modulation Properties of Compounds\nThe assay utilizes fluorescent voltage sensing dyes to measure changes in membrane potential using a fluorescent plate reader (e.g., FLIPR III, Molecular Devices, Inc.) as a readout for increase in functional ΔF508-CFTR in NIH 3T3 cells. The driving force for the response is the creation of a chloride ion gradient in conjunction with channel activation by a single liquid addition step after the cells have previously been treated with compounds and subsequently loaded with a voltage sensing dye.\nTo identify potentiators of ΔF508-CFTR, a double-addition HTS assay format was developed. This HTS assay utilizes fluorescent voltage sensing dyes to measure changes in membrane potential on the FLIPR III as a measurement for increase in gating (conductance) of ΔF508 CFTR in temperature-corrected ΔF508 CFTR NIH 3T3 cells. The driving force for the response is a Cl− ion gradient in conjunction with channel activation with forskolin in a single liquid addition step using a fluoresecent plate reader such as FLIPR III after the cells have previously been treated with potentiator compounds (or DMSO vehicle control) and subsequently loaded with a redistribution dye.\nSolutions • Bath Solution #1: (in mM) NaCl 160, KCl 4.5, CaCl2 2, MgCl2 1, HEPES 10, pH 7.4 with NaOH. […]", "note": "pEC50: −log10 of the molar value."}
{"smiles": "O=C(Nc1ccc(N2C3CCC2CC3)cc1C(F)(F)F)c1c[nH]c2cccc(C(F)(F)F)c2c1=O", "note": "[Compound 1 Form A, N-(4-(7-azabicyclo[2.2.1]heptan-7-yl)-2-(trifluoromethyl)phenyl)-4-oxo-5-(trifluoromethyl)-1,4-dihydroquinoline-3-carboxamide]", "values": [{"measurement": "pEC50", "result": "> 5.70"}]}
